Data as given in US20210395306A1, “POLYPEPTIDES FOR THE TREATMENT OF STRESS, IMMUNOREACTION AND STROKE SYNDROMES” (Neopep Pharma GmbH & Co. KG, priority 2018, published 2021).

Test system: Pancreas carcinoma cells
Test: Cancer cell invasion assay on humanized rats with implanted pancreas carcinoma cells
Assay type: in vivo
Settings: pancreas carcinoma implant
Method: The cancer cell invasion assay was performed on humanized rats (Eyol, E. et al., Oncology Reports, 28: 2177-2187, 2012). Pancreas carcinoma cells were implanted. The successful implant was observed by luminescent imaging as well as by an increase in CXCR4 expression.
After a successful implant of carcinoma cells, the rats were treated with a peptide according to SEQ ID No. 1. The results after 1 week of therapy (1 w of therapy), after 2 weeks of therapy (2 w of therapy) and 2 weeks after end of therapy are depicted in the below table.

## LVRYTQKAPQVS (human) [SEQ ID No. 1]
10 mg peptide, 1 w of therapy
  Tumor growth / remission: No tumor growth
20 mg peptide, 1 w of therapy
  Tumor growth / remission: No tumor growth
20 mg peptide, 2 w after end of therapy
  Tumor growth / remission: Complete
20 mg peptide, 2 w of therapy
  Tumor growth / remission: Complete
70 mg peptide, 1 w of therapy
  Tumor growth / remission: No tumor growth
70 mg peptide, 2 w after end of therapy
  Tumor growth / remission: Complete
70 mg peptide, 2 w of therapy
  Tumor growth / remission: Remission
